In one assay the test system is APOJ. In words: APOJ expression in retina of mice fed high fat diet containing compound. As to conditions: genotype (WT or HET) not stated; telmisartan 0.001% in high fat diet, 11 weeks; FIG. 23A. In kind it is in vivo. Here is the method:
(§1) Quantitative Real-Time Polymerase Chain Reaction Analyses. Total RNA was extracted with the RNeasy kit (Qiagen), treated with RNase-free DNase I (Qiagen), and reverse transcribed with oligo-dT using the SuperScript III cDNA synthesis kit (Invitrogen). Quantitative PCR was performed with the QuantiTect SYBR Green PCR Kit (Qiagen). Specific primers for each gene were designed with the PrimerQuest software (Integrated DNA Technologies), and the cDNA sequences of each gene (GenBank) were used to produce 100-250 bp PCR amplicons that span one or more exon/intron boundaries.
(§2) The HET mice described in Example 2 were administered various compounds to determine the effects of these compounds on the development of AMD. In the High Fat Diet (HFD) experiments, 5 wild type (WT) mice, 5 PGC-1α+/−mice, 5 PGC-1α−/−mice at 2 months old with C57BL/6 background were fed with regular diet (RD) or high fat diet for 16 weeks. […]
(§3) To test the effects of telmisartan, fenofibrate and UPF 1069 on mice, 5 wild type (WT) mice, 5 PGC-1α+/−mice, 5 PGC-1α−/−mice at 2 months old were administrated with RD, HFD, or HFD (Testdiet, 5015) containing one of the three compounds. […] 11 weeks after beginning of administration of the compounds, the mice were sacrificed, the body weight was measured, the eyes were enucleated, with the retinas being extracted and processed for RNA isolation. […]

For the next assay, the system named is AMD RPE. The assay is described as follows: Cell viability of AMD RPE under oxidative stress. In kind it is cell-based, human. As to conditions: FIG. 16E-G. Here is the method: RPE were cultured at 80-90% confluency in 96-well plates, at 37° C. with 5% O2 and 5% CO2. Oxidative stress was induced with different concentrations of H2O2 ranging from 0-10 mM for 24 or 48 hrs, followed by cell viability measurements. Cell viability was measured following a 30 min incubation with the PestoBlue Reagent (Life Technologies) of RPE monolayers cultured on 96-well plates, 6 wells used for each sample. Fluorescence measurements were performed using an Ultra384 plate reader with 535 nm excitation and 612 nm emission wavelengths.

The next assay relates to AMPK. The assay is described as follows: AMPK phosphorylation in RPE. It is filed as cell-based, human. The following applies: FIG. 16D. An excerpt: FIGS. 1-3 show various representations of an in vitro disease model of AMD. A total of 10 eyes from 5 organ donors clinically diagnosed with dry AMD and 10 eyes from 5 clinically normal donors were purchased from Lions Medical Eye Bank. RPE were isolated according to established protocols (Maminishkis et al., 2006) and cultured in Epithelial Cell Media (EpiCM, ScienCell) under controlled oxygen (5%) and CO2 (5%) conditions. Studies have shown that low (physiological) oxygen concentration promotes RPE growth (Knorr et al., 1993) and better protects from ROS-induced damage in vitro. RPE were then purified with Magnetic-Activated Cell Sorting (MACS) by positive selection for epithelial cells using anti-BEST1 antibody (Abcam) and anti-E-cadherin (Miltenyi Biotech); and by negative selection using a fibroblast-specific antibody (Miltenyi Biotech) to remove fibroblasts. The purity of the sorted cells was confirmed by immunostaining with anti-ZO-1 and anti-BEST1, and Real-Time PCR for RPE specific genes. The RPE cells were grown in Epithelial Cell Media (EpiCM, ScienCell) at 37° C., with 5% O2 and 5% CO2. […] Skin fibroblasts from a dry AMD patient were used to generate iPSC-RPE. […]
Immunoblot analysis. […] Protein concentrations were measured by Bradford assay (Bio-Rad). Protein samples were analyzed using the NuPAGE electrophoresis and XCell Western blot system (Invitrogen). […]

In assay [1] the test system is PGC-1α. The assay is described as follows: PGC-1α gene expression in mice fed high fat diet containing compound. In kind it is in vivo. The following applies: compound in high fat diet (telmisartan, UPF 0.001%; fenofibrate 0.1%), 11 weeks, FIG. 24. How it is done: as §1, §2, §3
The test system of assay [2] is PGC-1α. The assay is described as follows: PGC-1α gene expression in retinal pigment epithelium (RPE). The following applies: FIG. 16A-C. In kind it is cell-based, human. An excerpt:
(§4) FIGS. 1-3 show various representations of an in vitro disease model of AMD. A total of 10 eyes from 5 organ donors clinically diagnosed with dry AMD and 10 eyes from 5 clinically normal donors were purchased from Lions Medical Eye Bank. RPE were isolated according to established protocols (Maminishkis et al., 2006) and cultured in Epithelial Cell Media (EpiCM, ScienCell) under controlled oxygen (5%) and CO2 (5%) conditions. Studies have shown that low (physiological) oxygen concentration promotes RPE growth (Knorr et al., 1993) and better protects from ROS-induced damage in vitro. RPE were then purified with Magnetic-Activated Cell Sorting (MACS) by positive selection for epithelial cells using anti-BEST1 antibody (Abcam) and anti-E-cadherin (Miltenyi Biotech); and by negative selection using a fibroblast-specific antibody (Miltenyi Biotech) to remove fibroblasts. The purity of the sorted cells was confirmed by immunostaining with anti-ZO-1 and anti-BEST1, and Real-Time PCR for RPE specific genes. The RPE cells were grown in Epithelial Cell Media (EpiCM, ScienCell) at 37° C., with 5% O2 and 5% CO2. […] Skin fibroblasts from a dry AMD patient were used to generate iPSC-RPE. Genotyping of the donors and the patient is represented in FIG. 3.
(§5) Quantitative Real-Time Polymerase Chain Reaction Analyses. […] Quantitative PCR was performed with the QuantiTect SYBR Green PCR Kit (Qiagen). […]

The test system of the next assay is APOE. In words: APOE expression in retina of mice fed high fat diet containing compound. In kind it is in vivo. As to conditions: compound in high fat diet (telmisartan, UPF 0.001%; fenofibrate 0.1%), 11 weeks, FIG. 22. Here is the method: as §1, §2, §3
The test system of assay [3] is Acyl-CoA Dehydrogenase (ACADM). In words: Acyl-CoA Dehydrogenase (ACADM) expression in RPE. In kind it is cell-based, human. As to conditions: FIG. 16A-C.
From the text: as §4, §5

For the next assay, the system named is APOB. The assay is described as follows: APOB expression in retina of mice fed high fat diet containing compound. As to conditions: PGC-1α+/− (HET) mice; compound in high fat diet (telmisartan, UPF 0.001%; fenofibrate 0.1%), 11 weeks; FIG. 20. It is filed as in vivo. Here is the method: as §1, §2, §3
The test system of another assay is APP. The assay is described as follows: APP expression in retina of mice fed high fat diet containing compound. In kind it is in vivo. The following applies: compound in high fat diet (telmisartan, UPF 0.001%; fenofibrate 0.1%), 11 weeks, FIG. 21. Here is the method: as §1, §2, §3

Each structure is given as a SMILES string.

On to `CCCc1nc2c(C)cc(-c3nc4ccccc4n3C)cc2n1Cc1ccc(-c2ccccc2C(=O)O)cc1` [telmisartan], for which, in the assay on APOJ, the APOJ levels result is “did not reduce”. Besides, the “cell viability under oxidative stress” value in the assay with AMD RPE is recorded as “increasing”. Further, the AMPK phosphorylation result with AMPK (AMD RPE) and in the assay with AMPK (normal (control) RPE) was “inducing” throughout. Besides, the PGC-1α expression entry is given as “significantly Increase” with PGC-1α [1] (PGC-1α+/− (HET) mice), “significantly increased” with PGC-1α [1] (WT mice), “increasing” in the assay with PGC-1α [2] (AMD RPE) and “increasing” in the assay with PGC-1α [2] (normal (control) RPE). Moreover, the “APOE levels in the retina” value in the assay on APOE (PGC-1α+/− (HET) mice) and with APOE (WT mice) was “significantly reduce” in each case. The “Acyl-CoA Dehydrogenase (ACADM) expression” value in [3] (AMD RPE) and in [3] (normal (control) RPE) was “increasing” each time. The “APOB levels in the retina” value in the assay with APOB is on record as “significantly reduce”. The “APP levels in the retina” value in the assay on APP (PGC-1α+/− (HET) mice) is listed as “unable to decrease”; with APP (WT mice), “significant increase”.

`O=C(O)c1cc(C(=O)O)c2c(n1)C(=O)C(=O)c1cc(C(=O)O)[nH]c1-2` [PQQ, pyrroloquinoline quinone]: the “cell viability under oxidative stress” value with AMD RPE was “increasing”.

The values are drawn from patent publication US20230417767A1, “COMPOSITIONS AND METHODS FOR THE DIAGNOSIS AND TREATMENT OF AGE-RELATED MACULAR DEGENERATION” (Georgetown University, priority 2016, published 2023).
